From patent US20250195520A1, “COMBINATION THERAPY USING A PTPN11 INHIBITOR AND AN EGFR INHIBITOR” (NAVIRE PHARMA, INC., priority 2021, published 2025) come the findings set out here.

Data set [1] concerns HCC827 subcutaneous tumors. The data set can be described thus: HCC827 subcutaneous xenograft, tumor volume. The format is in vivo, mouse. Here is the method:
(§1) Cell lines. The HCC827 cell line was purchased from ATCC. […] The cells were cultured in RPMI-1640 medium (Sigma #RO883)+10% FBS (Sigma #F7524)+2 mM L-glutamine (Sigma #59202C) in 37° C. tissue culture incubator with 5% CO2.
(§2) Test animals. Female athymic nude mice (Envigo UK, Hsd: Athymic Nude-Foxn1nu) were utilized in this experiment. Animals were between 5 and 6 weeks of age at time of xenograft implantation. Animal welfare complies with the UK Animals Scientific Procedures Act 1986 (ASPA) in line with Directive 2010/63/EU of the European Parliament and the Council of 22 Sep. 2010 on the protection of animals used for scientific purposes. All experimental data management and reporting procedures were in strict accordance with applicable Crown Bioscience UK Guidelines and Standard Operating Procedures.
(§3) In vivo modeling, treatment and data analysis. For xenograft studies with the HCC827 and HCC827-ER1 cells, 5 million cells in 200 μL Matrigel (Corning #354234) were injected subcutaneously into the left flank of 5˜6 weeks old female athymic nude mice (Envigo UK). […] Dosing started ˜3 weeks post the subcutaneous implantation of the tumor cells. Dosing volume was 5 mL/kg for each compound, and was adjusted based on individual mouse weight from the daily measurements. Tumor volume was measured twice a week.
(§4) Data were analyzed using Microsoft Excel and GraphPad Prism 8.0. Day 0 was the day before treatment started. Body weight change was calculated based on the following formulas.

The test system of data set [2] is DUSP6 mRNA (MAPK pathway signaling) in HCC4006-OsiR cells. The data set can be described thus: In vitro pharmacodynamic assay, Taqman qRT-PCR of DUSP6 in HCC4006-OsiR cells. The format is cell-based, human. The following applies: osimertinib 100 nM, formula (10b) 3 μM, 4-hour, 48-hour, 7-day treatment.
Experimental: In vitro pharmacodynamic assay—Taqman qRT-PCR assay. The HCC4006-OsiR cells were plated in 6-well plates (Corning #353046) in 2 mL media and allowed to adhere overnight. […] Four hours later, 4-hour samples were harvested by removing media and lysing cells in each well with 350 μL RLT lysis buffer (Qiagen #79216) with 1% 2-mercaptoethanol. Samples were processed either right way or stored at −20° C. until further analysis. On day 3 and day 8, 48-hour samples and 7-day samples were harvested in the same way. Cells harvested at these two timepoints were switched to fresh media containing compounds 24 hours before sample harvesting.
RNA was extracted from lysates using RNeasy mini RNA isolation kit (Qiagen #74106). Isolated RNA was quantified using Nanodrop 8000 (Thermo Fisher). cDNA was synthesized using high capacity cDNA reverse transcription kit (Thermo Fisher #4368813) with 1 μg total RNA per reaction on a BioRad Tetrad2 thermal cycler (25° C. for 10 min, 37° C. for 120 min, 85° C. for 5 min then hold at 4° C.). The cDNA was further diluted 1:10 using ddH2O. Quantitative real-time PCR was conducted using the following Taqman probes and Taqman universal master mix II without UNG (Thermo Fisher #4440040) on QuantStudio 6 in 384-well format (Thermo Fisher), following vendor's protocols. Each well contains a target probe of interest conjugated to FAM dye (DUSP6, Thermo Fisher Assay ID Hs01044001_m1), and an endogenous control conjugated to VIC dye (human RPLPO, Thermo Fisher #4326314E). Each cDNA was run in three technical replicates.
The ΔΔCt method was used to analyze the qRT-PCR data. […] To calculate fold change, the relative mRNA levels of each sample were normalized to that in DMSO treated samples (fold change for DMSO treated samples was set at “1”). Calculations were done in Microsoft Excel and the graphs were generated in GraphPad Prism 8.0.
A short description of data set [3]: Plasma concentration by LC-MS/MS in mice bearing HCC827-ER1 tumors (PK/PD study). Here is the method: (§5) In vivo modeling, treatment and data analysis. […] Dosing started ˜3 weeks after the subcutaneous implantation of the tumor cells. Dosing volume was 5 mL/kg for each compound, and was adjusted based on individual mouse weight. Dosing and sample harvesting followed the schedule below. There was a 6-hour interval between the morning dose and the afternoon dose, and tumor/plasma samples were harvested at three timepoints during the 24-hour dosing cycle.
(§6) Blood collection for pharmacokinetic analysis. Blood from live animals for pharmacokinetic (PK) analyses was obtained via the lateral saphenous vein. The mouse was placed in a restraint tube and the hind leg immobilized in the extended position. Resting the foot of the animal on a solid surface, a sterile 25g needle (BD Microlance 3) was inserted into the saphenous vein on the top of the foot. The needle was removed and the blood collected using an EDTA coated capillary blood tube (Microvette CB 300 K2E) by capillary action to a volume of 100 μL.
The tube was inverted several times to distribute the EDTA evenly and then centrifuged at 13,000 rpm, 4° C. (VWR Micro Star 17R) for 5 minutes to generate plasma. The supernatant (plasma) was carefully transferred to a 1.5 mL tube and stored at −80° C.
(§7) The detection conditions of the mass spectrometer were as follows: capillary voltage, 3 kv; cone voltage, 50 ev; collision energy, 25 ev; source temperature, 150° C.; desolvation temperature, 400° C.; desolvation gas flow, 1000 L/hr; cone gas glow, 0.15 mL/min. […] The injection volume was 5 μL. The LC mobile phase A was 0.1% acetic acidwater and B was 0.1% acetic acid-acetonitrile. […] The column temperature was 40° C. […] All data were processed using the MAssLynx v. 4.0 software.

Data set [4] concerns HCC827-ER1 subcutaneous tumors. The data set can be described thus: HCC827-ER1 subcutaneous xenograft, tumor volume. The data set is classed as in vivo, mouse. The following applies: for Number of regressions: regressions/animals remaining. Here is the method: as §1, §2, §3, §4
A short description of data set [5]: Body weight in the HCC827-ER1 xenograft study. The following applies: Day 15. On the procedure:
In vivo modeling, treatment and data analysis. […] Dosing started ˜3 weeks post the subcutaneous implantation of the tumor cells. Dosing volume was 5 mL/kg for each compound, and was adjusted based on individual mouse weight from the daily measurements. Tumor volume was measured twice a week.
as §4
BWi and BW0 are the body weight of an individual mouse on measurement day I and on day 0, respectively.

The nature of data set [6]: Plasma exposure by LC-MS/MS in the HCC827 xenograft study. The following applies: for Formula (10b) Plasma concentration: 6-8 hours post the final dose of formula (10b) 100 mg/kg QD, mean ± SD.
Excerpt: as §6, with “μL. The tube was inverted several times to distribute the EDTA evenly and then centrifuged at 13,000 rpm, 4° C. (VWR Micro Star 17R) for 5 minutes to generate plasma. The supernatant (plasma) was carefully transferred to a 1.5 mL tube and stored at −80° C.” for “μL.”
For each analysis, 25 μL of plasma sample was precipitated with 200 μL of acetonitrile containing imipramine (70 ng/mL) as an internal standard.
as §7

For data set [7], the system named is MPAS-plus signature (MAPK pathway) in HCC827-ER1 tumors. The data set can be described thus: RNA sequencing (QuantSeq), MPAS-plus signature in HCC827-ER1 xenograft tumors. The format is in vivo, mouse. The following applies: for effect on MPAS-plus signature: across timepoints. Here is the method: as §5
The mark [8] stands for this setting: HCC827 xenograft, formula (10b) 100 mg/kg QD, osimertinib 5 mg/kg QD, PO, 21 days.

“Also recorded” adds a separate entry of the source. Bounds are passed on as bounds.

Broadly, the TGI is how far tumour growth fell short of that in controls.

As for `Cc1c(N2CCC3(CC2)CO[C@@H](C)[C@H]3N)nc(C)n(-c2cccc(Cl)c2Cl)c1=O` (atropisomer, axis not shown; (Ra)) [Formula (10b), 6-((3S,4S)-4-amino-3-methyl-2-oxa-8-azaspiro[4.5]decan-8-yl)-3-(Ra)-(2,3-dichlorophenyl)-2,5-dimethylpyrimidin-4 (3H)-one], the “tumor growth (tumor volume)” value in data set [1] (setting [8]) was “suppresses the growth of the HCC827 subcutaneous tumors; also recorded: tumor stasis”; in data set [4] (HCC827-ER1 xenograft, formula (10b) 100 mg/kg QD, osimertinib 5 mg/kg QD, PO, 21 days), “suppresses the growth of the HCC827-ER1 tumors; also recorded: tumor stasis”. Also, the “DUSP6 mRNA levels” value in data set [2] was “reduces the transcript levels of MAPK pathway signature gene DUSP6; also recorded: potently suppressed DUSP6 mRNA levels at all three timepoints tested”. The Formula (10b) Plasma concentration is 30 to 50 µM in data set [3] (6 hours and 8 hours after dosing, 100 mg/kg, monotherapy and in combination with osimertinib); 14.1 ± 5.6 µM in data set [6] (HCC827 xenograft model); 14.1 µM in data set [6] (HCC827 xenograft model, listed as formula (10b)). Further, in data set [3] (24 hr post (10b) (18 hr post osimertinib), formula (10b) 100 mg/kg PO, mean ± SD), the “10(b) plasma concentration” value came out at 1.34 ± 0.24 µM. In data set [3] (female, athymic nude, mouse, plasma, oral, 100 mg/kg, 10(b) plasma concentration, 6 hr post (10b) (24 hr post osimertinib), formula (10b) 100 mg/kg PO, mean ± SD), this compound gave a concentration at 6 h of 47.4 ± 5.2 µM. This compound also displayed a concentration at 8 h in data set [3] (female, athymic nude, mouse, plasma, oral, 100 mg/kg, 10(b) plasma concentration, 8 hr post (10b) (2 hr post osimertinib), formula (10b) 100 mg/kg PO, mean ± SD) of 35.8 ± 9.1 µM. The concentration at 24 h in data set [3] (female, athymic nude, mouse, plasma, oral, 100 mg/kg, 10(b) plasma concentration, 24 hr post (10b) (18 hr post osimertinib), formula (10b) 100 mg/kg PO, mean ± SD) was around 1000 nM. The TGI in data set [4] (Day 15, HCC827-ER1 xenograft, formula (10b) 100 mg/kg QD, osimertinib 5 mg/kg QD) is listed as 84%. In data set [4] (Day 15, HCC827-ER1 xenograft), the Number of regressions is 0/4. Further, the “Mean body weight change” value in data set [5] is “+6.3%”. Further, the “mRNA levels of the MPAS-plus genes” value in data set [7] (6-hour and 8-hour after formula (10b) administration) was “potently suppressed the mRNA levels of the MPAS-plus genes”. Besides, the “effect on MPAS-plus signature” value in data set [7] is on record as “suppresses the MPAS-plus signature”.
In the case of `C=CC(=O)Nc1cc(Nc2nccc(-c3cn(C)c4ccccc34)n2)c(OC)cc1N(C)CCN(C)C` [Osimertinib], the “tumor growth (tumor volume)” value is “tumor stasis” in data set [1] (setting [8]); “robust tumor regression” in data set [1] (mouse, in vivo); “continued to grow during the treatment period” in data set [4] (mouse, in vivo). In addition, the “DUSP6 mRNA levels” value in data set [2] was “did not suppress DUSP6 mRNA levels”. Further, the osimertinib plasma concentration in data set [3] (2 hr post osimertinib (8 hr post (10b)), osimertinib 5 mg/kg PO, mean ± SD) is on record as 681 ± 277 nM; in data set [3] (18 hr post osimertinib (24 hr post (10b)), osimertinib 5 mg/kg PO, mean ± SD), “low nanomolar range”; in data set [3] (24 hr post osimertinib (6 hr post (10b)), osimertinib 5 mg/kg PO, quantitation limit 2 nM) it was “BQL”; in data set [6] (24 hours post the final dose of osimertinib 5 mg/kg QD, HCC827 xenograft model, quantitation limit 2 nM), “BQL”. In data set [3] (female, athymic nude, mouse, in vivo, 5 mg/kg, osimertinib plasma concentration, 2 hr post osimertinib (8 hr post (10b)), osimertinib 5 mg/kg PO, mean ± SD), this compound returned a concentration at 2 h of around 700 nM. In data set [3] (female, athymic nude, mouse, in vivo, 5 mg/kg, osimertinib plasma concentration, 18 hr post osimertinib (24 hr post (10b)), osimertinib 5 mg/kg PO, mean ± SD), this compound gave a concentration at 18 h of 2.1 ± 0.14 nM. For the same compound, the concentration at 24 h in data set [3] (female, athymic nude, mouse, in vivo, 5 mg/kg, osimertinib plasma concentration, 24 hr post osimertinib (6 hr post (10b)), osimertinib 5 mg/kg PO, quantitation limit 2 nM) was below 2 nM; in data set [6] (athymic nude, mouse, in vivo, 5 mg/kg) it was below 2 nM. In addition, the Number of regressions in data set [4] (Day 15, HCC827-ER1 xenograft) is listed as 0/4. This compound had a TGI in data set [4] (mouse, in vivo) of 64%. For the same compound, the “Mean body weight change” value in data set [5] is recorded as “+1.0%”. Further, in data set [7], the “effect on MPAS-plus signature” value is recorded as “little effect on the MPAS-plus signature”.
